Test results as given in patent publication US12011506B2, “Combination and uses and treatments thereof” (priority 2017, dated 2024).
Values belong to the molecule of their own block, whether it stands above or below them.

What was measured:
CYP3A4 = CYP3A4 (Homo sapiens, UniProt P08684); conditions: cited from earlier work
[1] = Dolutegravir oral pharmacokinetics (absorption, steady state, population pharmacokinetic analyses); type: in vivo, human
[2] = Excretion after a single oral dose of [14C] dolutegravir; type: in vivo, human; conditions: single oral dose of [14C] dolutegravir
[3] = Food effect pharmacokinetics: high-fat or moderate-fat meal versus fasted (Tables 20, 21)
Excerpt: Cmax, AUC0-t, AUC0-∞ and AUClast are standard pharmacokinetic parameters that can be estimated manually or by using modelling software well known in the art, such as the Pharsight WinNonlin package using a non-compartmental model. The general basis for calculation of these quantities is well-known (e.g. see Rowland & Tozer (2010) Clinical Pharmacokinetics and Pharmacodynamics: Concepts and Applications ISBN 978-0781750097, or Jambhekar & Breen (2012) Basic Pharmacokinetics ISBN 978-0853699804). Typically the parameters will be assessed as the average (e.g. geometric or arithmetic mean) from within a group of at least 12 (and normally between 24 and 36) healthy human adults. Parameters should be measured in accordance with standards and practices which would be acceptable to a pharmaceutical regulatory agency such as FDA, EMA, MHLW, or WHO. The values may be based on measurements taken at appropriate intervals following the time of tablet ingestion, such as every hour, or at increasingly sparse sampling intervals, such as 1, 3, 5, 7, 9, 11, 13, 15, 20, and 24 hours after ingestion.

cytochrome P450 CYP3A = test: Rilpivirine in vitro oxidative metabolism; type: in vitro ADME; conditions: in vitro experiments
[4] = Excretion after single dose oral administration of [14C] rilpivirine; type: in vivo, human; conditions: single dose oral [14C] rilpivirine
Excerpt: In feces, unchanged rilpivirine accounted for on average 25% of the administered dose. […] The pharmacokinetic properties of rilpivirine have been evaluated in adult healthy subjects and in adult antiretroviral treatment-naïve HIV-1-infected subjects. Exposure to rilpivirine was generally lower in HIV-1 infected subjects than in healthy subjects.

[5] = Rilpivirine oral pharmacokinetics; type: in vivo, human
[6] = high-fat meal compared with fasted conditions
[7] = moderate-fat meal compared with fasted conditions

Chain of CYP3A4 (P08684 whole entry): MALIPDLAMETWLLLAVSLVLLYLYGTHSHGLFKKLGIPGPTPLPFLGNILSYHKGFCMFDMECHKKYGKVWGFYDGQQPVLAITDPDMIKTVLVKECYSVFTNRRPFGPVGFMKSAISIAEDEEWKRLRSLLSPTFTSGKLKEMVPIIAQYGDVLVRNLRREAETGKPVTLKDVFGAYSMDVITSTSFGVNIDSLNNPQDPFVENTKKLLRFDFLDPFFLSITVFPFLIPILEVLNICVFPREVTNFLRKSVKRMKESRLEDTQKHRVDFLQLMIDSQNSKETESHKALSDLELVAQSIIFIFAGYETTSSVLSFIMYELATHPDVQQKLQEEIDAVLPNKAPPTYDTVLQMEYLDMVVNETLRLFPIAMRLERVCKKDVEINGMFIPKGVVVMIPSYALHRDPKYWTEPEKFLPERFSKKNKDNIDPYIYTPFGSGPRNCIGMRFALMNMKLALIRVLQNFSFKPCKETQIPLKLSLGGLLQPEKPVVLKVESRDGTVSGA

SMILES: C[C@@H]1CCO[C@H]2Cn3cc(C(=O)NCc4ccc(F)cc4F)c(=O)c(O)c3C(=O)N12 [Dolutegravir, (4R,12aS)—N-[(2,4-difluorophenyl)methyl]-7-hydroxy-4-methyl-6,8-dioxo-3,4,12,12a-tetrahydro-2H-pyrido[5,6]pyrazino[2,6-b][1,3]oxazine-9-carboxamide]
Extent as substrate of CYP3A4 (CYP3A4): about 15%
half-life ([1]; human, plasma, oral, population pharmacokinetic analyses, read-out: Terminal half-life (converted)): ~840 min
Time to pharmacokinetic steady state ([1]; once-daily dosing): ≤ 5 days
Apparent clearance (CL/F) ([1]; population pharmacokinetic analyses): 1.0 L per hour
Renal elimination of unchanged drug [2]: less than 1 % of the dose
Total oral dose excreted in the urine [2]: Thirty-one
Total oral dose excreted unchanged in the feces [2]: 53%
Increase of AUC(0-∞) ([3]; human, in vivo): approximately 87%
Increase of Cmax ([3]; moderate- and high-fat meals each, compared with fasted conditions): approximately 75%

Metabolic pathway (cytochrome P450 CYP3A): primarily metabolized by CYP3A
Unchanged rilpivirine in urine [4]: < 1 % of dose
Radioactivity retrieved in feces ([4]; on average): 85%
Radioactivity retrieved in urine ([4]; on average): 6.1%
Unchanged rilpivirine in feces ([4]; on average): 25 % of the administered dose
half-life ([5]; human, in vivo, oral, read-out: Terminal elimination half-life (converted)): ~3000 min
Exposures lower than when taken with a meal ([5]; taken with only a protein-rich nutritional drink): 50%
Increase of AUC(0-∞) [3, 6]: 72%
Increase of Cmax [3, 6]: 117%
Increase of AUC(0-∞) [3, 7]: 57%
Increase of Cmax [3, 7]: 89%
SMILES: Cc1cc(/C=C/C#N)cc(C)c1Nc1ccnc(Nc2ccc(C#N)cc2)n1 [Rilpivirine, 4-[[4-[[4-[(E)-2-cyanoethenyl]-2,6-dimethylphenyl]amino]-2-pyrimidinyl]amino]benzonitrile]
Metabolic pathway (cytochrome P450 CYP3A; listed as rilpivirine): primarily undergoes oxidative metabolism mediated by the cytochrome P450 CYP3A system
